Measurements: patent US7973061B2, “Anaplastic lymphoma kinase modulators and methods of use” (Exelixis, Inc., priority 2004, dated 2011)

These compounds were tested against T1, ALK (baculovirus expressed human ALK kinase domain F1098-K1410) (Homo sapiens, UniProt Q9UM73) (assay: biochemical). Conditions: 1 μM ATP, 4 μM poly-AEKY, 12 nM ALK, 2 hours at ambient temperature; read-out: ALK IC50.
T1 construct: human ALK kinase domain F1098-K1410; made in house
Experimental: Kinase activity and compound inhibition are investigated using one or more of the three assay formats described below. The ATP concentrations for each assay are selected to be close to the Michaelis-Menten constant (KM) for each individual kinase. Dose-response experiments are performed at 10 different inhibitor concentrations in a 384-well plate format. […] Y=Min+(Max−Min)/(1+(X/IC50)^H) Equation (2) Luciferase-Coupled Chemiluminescent Kinase Assay
ALK biochemical activity was assessed using a Luciferase-Coupled Chemiluminescent Kinase assay (LCCA) format in which kinase activity was measured as the percent ATP remaining following the kinase reaction. ATP remaining after the kinase reaction was detected by luciferase-luciferin-coupled chemiluminescence. […] The mixture was incubated at ambient temperature for 2 hours after which 20 μL luciferase-luciferin mix was added and the chemiluminescent signal read using a Wallac Victor^2 reader. […] Consumption of ATP by ALK can be quantified and utilized as a measure of inhibition of ALK activity by compounds described herein. By employing serial dilutions of compounds to be tested, the ability of test compounds to inhibit ALK activity can be determined.

T1 sequence (Q9UM73 1098-1410): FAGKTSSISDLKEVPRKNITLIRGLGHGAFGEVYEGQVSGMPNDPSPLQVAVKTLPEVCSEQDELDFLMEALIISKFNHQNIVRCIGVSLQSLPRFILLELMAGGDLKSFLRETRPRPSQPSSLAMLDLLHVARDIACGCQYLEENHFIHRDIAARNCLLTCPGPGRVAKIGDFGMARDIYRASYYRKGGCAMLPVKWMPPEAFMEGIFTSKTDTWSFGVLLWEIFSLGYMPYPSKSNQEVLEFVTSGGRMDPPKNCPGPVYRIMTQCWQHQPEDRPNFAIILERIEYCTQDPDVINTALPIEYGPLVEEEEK

Row | SMILES | IC50 [nM]
1 | CC(NC(=O)COc1ccc(OC(F)(F)F)cc1)c1nc(C(=O)NCCc2cccc(Cl)c2)cs1 (stereo not drawn) [Entry 1, N-[2-(3-chlorophenyl)ethyl]-2-(1-{[({4-[(trifluoromethyl)oxy]phenyl}oxy)acetyl]amino}ethyl)-1,3-thiazole-4-carboxamide] | < 50
2 | C[C@@H](CNC(=O)c1csc(CNC(=O)COc2ccc(OC(F)(F)F)cc2)n1)c1ccccc1 [Entry 6, N-[(2R)-2-phenylpropyl]-2-({[({4-[(trifluoromethyl)oxy]phenyl}oxy)acetyl]amino}methyl)-1,3-thiazole-4-carboxamide] | < 50
3 | CC(CNC(=O)c1csc(CNC(=O)COc2ccc(OC(F)(F)F)cc2)n1)c1ccccc1 (stereo not drawn) [Entry 7, N-(2-phenylpropyl)-2-({[({4-[(trifluoromethyl)oxy]phenyl}oxy)acetyl]amino}methyl)-1,3-thiazole-4-carboxamide] | < 50
4 | CCc1ccc(NC(=O)NCc2nc(C(=O)NCCc3cccc(Cl)c3)cs2)cc1 [Entry 8, N-[2-(3-chlorophenyl)ethyl]-2-[({[(4-ethylphenyl)amino]carbonyl}amino)methyl]-1,3-thiazole-4-carboxamide] | < 50
5 | COc1cccc(CNC(=O)c2csc(CNC(=O)COc3ccc(OC(F)(F)F)cc3)n2)c1OC [Entry 11, N-{[2,3-bis(methyloxy)phenyl]methyl}-2-({[({4-[(trifluoromethyl)oxy]phenyl}oxy)acetyl]amino}methyl)-1,3-thiazole-4-carboxamide] | < 50
6 | O=C(COc1ccc(OC(F)(F)F)cc1)NCc1nc(C(=O)NCCc2cccc(F)c2)cs1 [Entry 14, N-[2-(3-fluorophenyl)ethyl]-2-({[({4-[(trifluoromethyl)oxy]phenyl}oxy)acetyl]amino}methyl)-1,3-thiazole-4-carboxamide] | < 50
7 | O=C(COc1ccc(I)cc1)NCc1nc(C(=O)NCCc2cccc(Cl)c2)cs1 [Entry 16, N-[2-(3-chlorophenyl)ethyl]-2-[({[(4-iodophenyl)oxy]acetyl}amino)methyl]-1,3-thiazole-4-carboxamide] | < 50
8 | COc1ccccc1CNC(=O)c1csc(CNC(=O)COc2ccc(OC(F)(F)F)cc2)n1 [Entry 17, N-{[2-(methyloxy)phenyl]methyl}-2-({[({4-[(trifluoromethyl)oxy]phenyl}oxy)acetyl]amino}methyl)-1,3-thiazole-4-carboxamide] | < 50
9 | O=C(COc1ccc(OC(F)(F)F)cc1)NCc1nc(C(=O)NCCc2cccs2)cs1 [Entry 19, N-[2-(2-thienyl)ethyl]-2-({[({4-[(trifluoromethyl)oxy]phenyl}oxy)acetyl]amino}methyl)-1,3-thiazole-4-carboxamide] | < 50
10 | Cc1cccc(CCNC(=O)c2csc(CNC(=O)COc3ccc(OC(F)(F)F)cc3)n2)c1 [Entry 21, N-[2-(3-methylphenyl)ethyl]-2-({[({4-[(trifluoromethyl)oxy]phenyl}oxy)acetyl]amino}methyl)-1,3-thiazole-4-carboxamide] | < 50
11 | O=C(COc1ccc(OC(F)(F)F)cc1)NCc1nc(C(=O)NC23C[C@H]4C[C@@H](C2)C[C@@H](C3)C4)cs1 [Entry 23, N-tricyclo[3.3.1.1~3,7~]dec-1-yl-2-({[({4-[(trifluoromethyl)oxy]phenyl}oxy)acetyl]amino}methyl)-1,3-thiazole-4-carboxamide] | < 50
12 | O=C(COc1ccc(OC(F)(F)F)cc1)NCc1nc(C(=O)NCCc2ccc(F)cc2)cs1 [Entry 24, N-[2-(4-fluorophenyl)ethyl]-2-({[({4-[(trifluoromethyl)oxy]phenyl}oxy)acetyl]amino}methyl)-1,3-thiazole-4-carboxamide] | < 50
13 | CC(C)c1ccc(NC(=O)NCc2nc(C(=O)NCCc3cccc(Cl)c3)cs2)cc1 [Entry 25, N-[2-(3-chlorophenyl)ethyl]-2-{[({[4-(1-methylethyl)phenyl]amino}carbonyl)amino]methyl}-1,3-thiazole-4-carboxamide] | < 50
14 | C[C@H](CNC(=O)c1csc(CNC(=O)COc2ccc(OC(F)(F)F)cc2)n1)c1ccccc1 [Entry 26, N-[(2S)-2-phenylpropyl]-2-({[({4-[(trifluoromethyl)oxy]phenyl}oxy)acetyl]amino}methyl)-1,3-thiazole-4-carboxamide] | < 50
15 | CC(C)c1ccc(NC(=O)NCc2nc(C(=O)NCCc3ccccc3F)cs2)cc1 [Entry 27, N-[2-(2-fluorophenyl)ethyl]-2-{[({[4-(1-methylethyl)phenyl]amino}carbonyl)amino]methyl}-1,3-thiazole-4-carboxamide] | < 50
16 | COc1cc(CCNC(=O)c2csc(CNC(=O)COc3ccc(OC(F)(F)F)cc3)n2)cc(OC)c1 [Entry 30, N-{2-[3,5-bis(methyloxy)phenyl]ethyl}-2-({[({4-[(trifluoromethyl)oxy]phenyl}oxy)acetyl]amino}methyl)-1,3-thiazole-4-carboxamide] | 50 to 500

Next, values leading:

Row | IC50 [nM] | SMILES
17 | < 50 | O=C(COc1ccc(OC(F)(F)F)cc1)NCc1nc(C(=O)NCCc2cccc(Cl)c2)cs1 [Entry 2, N-[2-(3-chlorophenyl)ethyl]-2-({[({4-[(trifluoromethyl)oxy]phenyl}oxy)acetyl]amino}methyl)-1,3-thiazole-4-carboxamide]
18 | < 50 | O=C(COc1ccc(OC(F)(F)F)cc1)NCc1nc(C(=O)N2Cc3ccccc3C2)cs1 [Entry 3, N-{[4-(1,3-dihydro-2H-isoindol-2-ylcarbonyl)-1,3-thiazol-2-yl]methyl}-2-({4-[(trifluoromethyl)oxy]phenyl}oxy)acetamide]
19 | < 50 | O=C(COc1ccc(OC(F)(F)F)cc1)NCc1nc(C(=O)NCC2c3ccccc3CCc3ccccc32)cs1 [Entry 4, N-(10,11-dihydro-5H-dibenzo[a,d]cyclohepten-5-ylmethyl)-2-({[({4-[(trifluoromethyl)oxy]phenyl}oxy)acetyl]amino}methyl)-1,3-thiazole-4-carboxamide]
20 | < 50 | O=C(COc1ccc(OC(F)(F)F)cc1)NCc1nc(C(=O)NCCc2ccccc2F)cs1 [Entry 5, N-[2-(2-fluorophenyl)ethyl]-2-({[({4-[(trifluoromethyl)oxy]phenyl}oxy)acetyl]amino}methyl)-1,3-thiazole-4-carboxamide]
21 | < 50 | COc1ccc(CCNC(=O)c2csc(CNC(=O)COc3ccc(OC(F)(F)F)cc3)n2)cc1 [Entry 9, N-{2-[4-(methyloxy)phenyl]ethyl}-2-({[({4-[(trifluoromethyl)oxy]phenyl}oxy)acetyl]amino}methyl)-1,3-thiazole-4-carboxamide]
22 | < 50 | C[C@@H]1[C@@H](NC(=O)c2csc(CNC(=O)COc3ccc(OC(F)(F)F)cc3)n2)C[C@H]2C[C@@H]1C2(C)C [Entry 12, 2-({[({4-[(trifluoromethyl)oxy]phenyl}oxy)acetyl]amino}methyl)-N-[(1S,2S,3S,5R)-2,6,6-trimethylbicyclo[3.1.1]hept-3-yl]-1,3-thiazole-4-carboxamide]
23 | < 50 | NS(=O)(=O)c1ccc(CCNC(=O)c2csc(CNC(=O)COc3ccc(OC(F)(F)F)cc3)n2)cc1 [Entry 13, N-{2-[4-(aminosulfonyl)phenyl]ethyl}-2-({[({4-[(trifluoromethyl)oxy]phenyl}oxy)acetyl]amino}methyl)-1,3-thiazole-4-carboxamide]
24 | < 50 | Cc1ccccc1CCNC(=O)c1csc(CNC(=O)COc2ccc(OC(F)(F)F)cc2)n1 [Entry 15, N-[2-(2-methylphenyl)ethyl]-2-({[({4-[(trifluoromethyl)oxy]phenyl}oxy)acetyl]amino}methyl)-1,3-thiazole-4-carboxamide]
25 | < 50 | O=C(COc1ccc(OC(F)(F)F)cc1)NCc1nc(C(=O)NCC(c2ccccc2)c2ccccc2)cs1 [Entry 18, N-(2,2-diphenylethyl)-2-({[({4-[(trifluoromethyl)oxy]phenyl}oxy)acetyl]amino}methyl)-1,3-thiazole-4-carboxamide]
26 | < 50 | CCOc1cc(CCNC(=O)c2csc(CNC(=O)COc3ccc(OC(F)(F)F)cc3)n2)ccc1OC [Entry 20, N-{2-[3-(ethyloxy)-4-(methyloxy)phenyl]ethyl}-2-({[({4-[(trifluoromethyl)oxy]phenyl}oxy)acetyl]amino}methyl)-1,3-thiazole-4-carboxamide]
27 | < 50 | COc1ccccc1CNC(=O)c1csc(CNC(=O)COc2ccc(C(C)(C)C)cc2)n1 [Entry 22, 2-{[({[4-(1,1-dimethylethyl)phenyl]oxy}acetyl)amino]methyl}-N-{[2-(methyloxy)phenyl]methyl}-1,3-thiazole-4-carboxamide]
28 | 50 to 500 | CCOc1cccc(CCNC(=O)c2csc(CNC(=O)COc3ccc(OC(F)(F)F)cc3)n2)c1 [Entry 28, N-{2-[3-(ethyloxy)phenyl]ethyl}-2-({[({4-[(trifluoromethyl)oxy]phenyl}oxy)acetyl]amino}methyl)-1,3-thiazole-4-carboxamide]
29 | 50 to 500 | COc1ccccc1CNC(=O)c1csc(CNC(=O)Nc2ccc(C(C)C)cc2)n1 [Entry 29, 2-{[({[4-(1-methylethyl)phenyl]amino}carbonyl)amino]methyl}-N-{[2-(methyloxy)phenyl]methyl}-1,3-thiazole-4-carboxamide]
30 | 50 to 500 | O=C(COc1ccc(OC(F)(F)F)cc1)NCc1nc(C(=O)NCCc2cccc(Cl)c2)co1 [Entry 31, N-[2-(3-chlorophenyl)ethyl]-2-({[({4-[(trifluoromethyl)oxy]phenyl}oxy)acetyl]amino}methyl)-1,3-oxazole-4-carboxamide]
